Test results as given in US7186728B2, “Methylene-4-azasteroids” (Schering AG, priority 2001, dated 2007).

System: action of testosterone propionate (TP) on the growth of the seminal vesicle and prostate
Assay: Antiandrogenic activity: inhibition of testosterone propionate (TP) action on accessory genital gland growth in castrated immature male rats
Assay type: in vivo, rat
Conditions: for Effects of testosterone propionate, TP, on the prostate and seminal vesicle (in words): castrated immature male rats, TP + compound; for Inhibition of the action of testosterone propionate (TP) on the growth of the prostate / Inhibition of the action of testosterone propionate (TP) on the growth of the seminal vesicle: sexually immature castrated male rats, TP 0.1 mg/animal/day s.c. + 5α-reductase inhibitor 1 mg/animal/day s.c., 7 days, difference vehicle controls and TP controls = 100%
Protocol: Evaluation of antiandrogenic activity of the compounds of the invention was performed in castrated male rats (see FIGS. 1 to 5/table). Castrated immature male rats were treated for 7 days with testosterone propionate (TP) and the substances of the invention (0.1 mg of TP alone and/or 1 mg of 5α-reductase inhibitor/animal/day, s.s., n=5–10/group). The treatment with TP caused a severe increase in weight of the accessory genital glands (prostate and seminal vesicle). In the animals treated with the vehicle and with 5α-reductase inhibitor alone, the weights of the examined organs remained at low values. The substances of the invention exerted an inhibitory effect in the test systems selected. […] [table]

Structure (SMILES) | Effects of testosterone propionate, TP, on the prostate and seminal vesicle (in words) | Inhibition of the action of testosterone propionate (TP) on the growth of the prostate [%] | Inhibition of the action of testosterone propionate (TP) on the growth of the seminal vesicle [%]
CN1C(=O)CC[C@]2(C)C3CC[C@]4(C)/C(=C/Cl)CCC4C3CC[C@@H]12 (stereo partly drawn) [J 1924] | appreciably reduced | 39 | 41
CN1C(=O)CC[C@@H]2C3CC[C@]4(C)/C(=C/Cl)CCC4C3CC[C@H]21 (stereo partly drawn) [J 1879] | appreciably reduced | 34 | 25
